What was measured:
human CB2 receptors = human CB2 receptors (Homo sapiens (Human), UniProt P34972); assay: functional cAMP assay, CHO cells expressing human CB2 receptors; format: cell-based
Summary of the method: (§1)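 Readout: TR-FRET cAMP detection at 730 and 645 nm with 355 nm excitation, quantified from a standard curve spanning 10 μM to 0.13 nM cAMP. Human CB1- or CB2-expressing CHO cells were exposed to compound for 30 min at 30 °C in KRB buffer containing 1 mM IBMX. EC50 derived.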

human CB1 receptors = human CB1 receptors (Homo sapiens (Human), UniProt P21554); assay: functional cAMP assay, CHO cells expressing human CB1 receptors; format: cell-based
Sequence of human CB1 receptors (P21554 whole entry): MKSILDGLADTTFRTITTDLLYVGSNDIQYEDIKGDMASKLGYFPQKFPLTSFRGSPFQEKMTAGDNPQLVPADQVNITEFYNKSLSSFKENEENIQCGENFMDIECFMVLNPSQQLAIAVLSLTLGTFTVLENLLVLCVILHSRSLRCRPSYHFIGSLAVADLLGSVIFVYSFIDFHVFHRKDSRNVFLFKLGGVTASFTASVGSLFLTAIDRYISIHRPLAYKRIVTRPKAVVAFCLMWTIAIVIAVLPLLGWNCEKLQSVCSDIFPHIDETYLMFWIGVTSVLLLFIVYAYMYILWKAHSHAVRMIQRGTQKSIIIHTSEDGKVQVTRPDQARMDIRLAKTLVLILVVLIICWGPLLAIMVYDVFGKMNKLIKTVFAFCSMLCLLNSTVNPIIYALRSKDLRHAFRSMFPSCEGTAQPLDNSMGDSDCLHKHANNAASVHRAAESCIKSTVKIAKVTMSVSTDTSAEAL
Summary of the method: as §1

Sequence of human CB2 receptors (P34972 whole entry): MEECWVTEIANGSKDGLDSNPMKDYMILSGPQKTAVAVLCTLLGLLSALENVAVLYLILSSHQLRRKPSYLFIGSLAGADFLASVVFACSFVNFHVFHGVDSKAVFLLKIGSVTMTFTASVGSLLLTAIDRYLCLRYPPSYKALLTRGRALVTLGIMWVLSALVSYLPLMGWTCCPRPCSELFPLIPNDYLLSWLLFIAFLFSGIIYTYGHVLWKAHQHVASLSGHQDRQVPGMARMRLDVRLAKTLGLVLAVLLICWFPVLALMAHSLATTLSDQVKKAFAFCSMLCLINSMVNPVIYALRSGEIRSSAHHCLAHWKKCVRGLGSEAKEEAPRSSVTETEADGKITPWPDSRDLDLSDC

Row | Structure (SMILES) | EC50 (human CB2 receptors) [nM] | EC50 (human CB1 receptors) [nM]
1 | Cc1nnc(CN(C(=O)c2ccc(N3CC(F)(F)C3)c(OCC3CC3)n2)C(C)(C)C)o1 [Example 36, 6-Cyclopropylmethoxy-5-(3,3-difluoro-azetidin-1-yl)-pyridine-2-carboxylic acid tert-butyl-(5-methyl-[1,3,4]oxadiazol-2-ylmethyl)-amide] | 226 | > 10000
2 | O=C(c1ccc(C2CC2)c(OCC2CC2)n1)N1CCC(O)(C(F)(F)F)C1 (stereo not shown) [Example 143, [5-Cyclopropyl-6-(cyclopropylmethoxy)pyridin-2-yl]-[3-hydroxy-3-(trifluoromethyl)pyrrolidin-1-yl]methanone] | 87.8 | > 10000
3 | CCN(C(=O)c1ccc(N2CC(F)(F)C2)c(OCC2CC2)n1)C(C)(C)C [Example 7, 6-Cyclopropylmethoxy-5-(3,3-difluoro-azetidin-1-yl)-pyridine-2-carboxylic acid tert-butyl-ethyl-amide] | 0.6 | 292
4 | O=C(c1ccc(C2CC2)c(OCC2CC2)n1)N1CCC(C(O)C(F)(F)F)C1 (stereo not shown) [Example 141, [5-Cyclopropyl-6-(cyclopropylmethoxy)pyridin-2-yl]-[3-(2,2,2-trifluoro-1-hydroxyethyl)pyrrolidin-1-yl]methanone] | 262 | > 10000
5 | O=C(OCc1ccccc1)N1CCN(C(=O)c2ccc(N3CC(F)(F)C3)c(OCC3CC3)n2)CC1 [Example 109, 4-[6-Cyclopropylmethoxy-5-(3,3-difluoro-azetidin-1-yl)-pyridine-2-carbonyl]-piperazine-1-carboxylic acid benzyl ester] | 360 | > 10000
